Assay results from article PMC9298352, “Design, Synthesis and Structural Analysis of Glucocerebrosidase Imaging Agents” (Chemistry (Weinheim an Der Bergstrasse, Germany), 2021).

Legend:
rhGBA = biological target: T1, rhGBA (Homo sapiens, UniProt P04062); test: Time-dependent labelling of rhGBA with galacto-ABP 7 and gluco-ABP 8 (SDS-PAGE, Cy5 fluorescence); type: biochemical; details: rhGBA 700 nM, ABP 150 nM
T1 construct: made in house; host or cells: insect-baculovirus expression vector system (BEVS)
T1 sequence (P04062 40-536): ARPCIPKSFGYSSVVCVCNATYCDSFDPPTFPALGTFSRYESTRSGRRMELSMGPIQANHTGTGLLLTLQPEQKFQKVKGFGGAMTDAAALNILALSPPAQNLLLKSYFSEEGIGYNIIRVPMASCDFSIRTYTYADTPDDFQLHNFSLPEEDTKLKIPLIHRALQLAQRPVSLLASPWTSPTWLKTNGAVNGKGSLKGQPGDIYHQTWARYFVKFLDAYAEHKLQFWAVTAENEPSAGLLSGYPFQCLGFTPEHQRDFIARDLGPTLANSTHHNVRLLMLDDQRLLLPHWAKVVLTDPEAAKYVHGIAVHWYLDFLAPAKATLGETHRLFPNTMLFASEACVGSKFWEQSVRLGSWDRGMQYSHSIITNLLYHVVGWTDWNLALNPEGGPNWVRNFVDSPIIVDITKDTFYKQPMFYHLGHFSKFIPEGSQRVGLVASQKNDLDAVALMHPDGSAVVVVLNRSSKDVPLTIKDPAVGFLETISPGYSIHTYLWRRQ
Description: To rapidly investigate for cross‐reactivity with galacto‐configured cyclophellitol aziridines, time‐dependent labelling assays of rhGBA with galacto‐configured Cy5‐tagged aziridine ABP 7 were performed (Figure 3).
Figure 3 Time dependent labelling of rhGBA (700 nM) by Cy5‐tagged galacto‐ABP 7 (150 nM) after 2, 5, 10, 30 and 60 mins showing that labelling reaches saturation at 30 mins. In comparison, labelling by Cy5‐tagged gluco‐ABP 8 (150 nM) reaches saturation in 2mins. […] ABP labelled rhGBA (60 kDa) visualized by Cy5 fluorescent readout.
rhGBA produced in BEVS[58] was prepared at 700 nM in 150 mM McIlvaine buffer pH 5.2 (containing 0.1 % (v/v) Triton X‐100 and 0.2 % (w/v) sodium taurocholate) and ABP 7 or ABP 8 were added to 150 nM. The reactions were incubated at 37 °C and aliquots were taken at 2, 5, 10, 30 and 60 mins. The aliquots were immediately denatured with Laemmli (x3) sample buffer by heating at 95 °C for 5 minutes. The samples were resolved by electrophoresis in 10 % SDS‐PAGE gels, running at 200 V for ∼50 minutes. Wet slab gels were scanned on fluorescence using an AmershamTyphoon 5 Imager (GE Healthcare) with λEX 635 nm; λEM >665 nm.

GBA = details: read-out: apparent IC50 for GBA; cited from earlier work

Structure (SMILES) | time to saturation of rhGBA labelling (Figure 3 legend) (rhGBA) [min] | time to saturation of rhGBA labelling (rhGBA; pH 5.2, 37 °C) [min] | time within which rhGBA is labelled (rhGBA; pH 5.2, 37 °C) [min] | IC50 (GBA) [nM]
C[N+]1=C(C=CC=CC=C2N(CCCCCC(=O)NCc3ccc(C4=C5C(C=NN4)C4CC(C(=O)NCCCCCCN6C7C(O)C(O)C(O)C(CO)C76)C5C4)cc3)c3ccccc3C2(C)C)C(C)(C)c2ccccc21 (stereo not shown) [ABP 7] | 30 | ≤ 30 | ≤ 2 | –
OC[C@@H]1[C@@H](O)[C@H](O)[C@@H](O)[C@@H]2N[C@H]12 [compound 2, cyclophellitol aziridine] | – | – | – | 500
